Measurements as given in PubChem BioAssay (NCI).
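Five concentrations, 48 hours, 96-well plates. Here, GI50 denotes the concentration required for 50% inhibition of growth. At the TGI there is no net growth.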 Where a SMILES comes first, the peptide text is derived from it. [ ]: non-standard residue; d: D form. The star is where a group is joined. Bn2Val = CC(C)[C@@H](C(=O)*)N(Cc1ccccc1)Cc1ccccc1; NH(4-Cl-benzyl) = Clc1ccc(CN*)cc1; NMeV = CN[C@H](C(=O)O)C(C)C; dNMeA = CN[C@H](C)C(=O)O

Legend:
Assay in all cases: NCI tumour cell line growth inhibition, 48 h
[1] = system: MDA-N
[2] = system: NCI-H23 lung
[3] = system: 786-0 renal
[4] = system: NCI-H460 lung
[5] = system: EKVX NSCLC
[6] = system: SK-MEL-28 melanoma
[7] = system: PC-3 prostate
[8] = system: RXF 393 renal
[9] = system: NCI/ADR-RES ovarian
[10] = system: SNB-19 CNS

| SMILES | TGI [1] | TGI [2] | TGI [3] | TGI [4] | TGI [5] | TGI [6] | TGI [7] | TGI [8] | TGI [9] | TGI [10] | GI50 [6] | GI50 [1] | GI50 [2] |
| --- | --- | --- | --- | --- | --- | --- | --- | --- | --- | --- | --- | --- | --- |
| Cc1c(C(=O)OCc2ccccc2)[n+](=O)c2cc(Cl)c(Cl)cc2n1[O-] | 40.7 µM | 32.5 µM | 30.5 µM | 30.7 µM | 28.6 µM | 64.8 µM | 55 µM | 36 µM | 48.4 µM | 68.1 µM | – | – | – |
| CC(C)(C)CC(C)(C)c1cc(O)c(O)c(CN2CCCCC2)c1 | 28.3 µM | 29.6 µM | 26.7 µM | 24 µM | 26.4 µM | 32.8 µM | 26.9 µM | 29.2 µM | 19 µM | 28.8 µM | – | – | – |
| CC(C)/C(Cl)=N\OC(NC(=O)P(=O)(c1ccccc1)c1ccccc1)(C(F)(F)F)C(F)(F)F | 63.8 µM | 23.8 µM | 22.8 µM | 53.7 µM | 63.2 µM | 28.2 µM | 34.4 µM | 34 µM | 42.2 µM | 35.3 µM | – | – | – |
| CN(C)CCCNc1ccc2nnn3c4ccc(O)cc4c(=O)c1c23 | 19.9 µM | 18.3 µM | 16.9 µM | 14.1 µM | 25.3 µM | 22.5 µM | 17.5 µM | 1.16 µM | 21.8 µM | 23.7 µM | – | – | – |
| CN(Cc1cnc2nc(N)nc(N)c2n1)c1ccc(C(=O)NC(CO)CCCO)cc1 (configuration not stated) | > 100 µM | > 100 µM | > 100 µM | > 100 µM | > 100 µM | > 100 µM | > 100 µM | > 100 µM | > 100 µM | > 100 µM | – | – | – |
| COc1ccc(Nc2ccc3ccccc3c2-c2c(O)ccc3ccccc23)cc1 | 29.4 µM | 32.4 µM | 32.2 µM | 30 µM | 31.8 µM | 31.7 µM | 29.3 µM | 49.8 µM | 36.5 µM | 37.2 µM | – | – | – |
| COc1ccc(C(=O)CC(c2ccccc2)[C@H]2C(c3ccc(OC)cc3)=Nc3c(nc(SC)n(C)c3=O)NC2c2ccccc2)cc1 (some centres not stated) | > 100 µM | > 100 µM | > 100 µM | > 100 µM | > 100 µM | > 100 µM | > 100 µM | > 100 µM | > 100 µM | > 100 µM | – | – | – |
| CCOP(=O)(OCC)/C(=C/c1cccs1)CC(C)=O | > 100 µM | > 100 µM | > 100 µM | > 100 µM | > 100 µM | > 100 µM | > 100 µM | > 100 µM | > 100 µM | > 100 µM | – | – | – |
| C/C(=N\Nc1nc2ccccc2n1C)c1cc2ccccc2cn1 | 16.6 µM | 7.4 µM | 3.82 µM | 7.05 µM | 5 µM | 16.6 µM | > 20.7 µM | 7.7 µM | 1.55 µM | 14.6 µM | – | – | – |
| CC(C)=CCNc1nc(Cl)nc2nc[nH]c12 | > 100 µM | > 100 µM | > 100 µM | 68.8 µM | > 100 µM | > 100 µM | > 100 µM | 62 µM | > 100 µM | > 100 µM | – | – | – |
| COC(=O)C1C(=O)N(C)C(=O)N2CCCC12 (configuration not stated) | > 100 µM | > 100 µM | > 100 µM | > 100 µM | > 100 µM | > 100 µM | > 100 µM | > 100 µM | > 100 µM | > 100 µM | – | – | – |
| C#CCn1c(=O)c(C)cn(/C(=C\C(=O)OCC)C(=O)OCC)c1=O | 22.2 µM | 27.3 µM | > 100 µM | 8.06 µM | 30.1 µM | 31 µM | 27.6 µM | 4.49 µM | 17.1 µM | 39.4 µM | 14.5 µM | – | – |
| Cc1cc2c([nH]c3ccccc32)c(O)c1-c1c(C)cc2c([nH]c3ccccc32)c1O | 27.8 µM | 26.8 µM | 26.6 µM | 16.7 µM | 27.7 µM | 55 µM | 25.9 µM | 23.1 µM | 29.4 µM | 32.2 µM | – | 14.7 µM | 12.4 µM |
| CCCCCCCCCCCCCCCCCCNc1nc(=O)n(C2CC(O)C(COP(=O)(O)O)O2)cc1F (configuration not stated) | > 100 µM | > 100 µM | > 100 µM | > 100 µM | > 100 µM | > 100 µM | > 100 µM | > 100 µM | > 100 µM | > 100 µM | – | – | – |
| CC(C)(C)OC(=O)NCC(CNC(=O)OC(C)(C)C)c1nc(C(N)=O)cs1 | > 100 µM | > 100 µM | > 100 µM | > 100 µM | > 100 µM | > 100 µM | > 100 µM | > 100 µM | > 100 µM | > 100 µM | – | – | – |
| O=C1OC[C@H]2[C@@H]1[C@H]1O[C@@H]2C2=C(CCC2)C1=O | > 100 µM | > 100 µM | > 100 µM | > 100 µM | > 100 µM | > 100 µM | > 100 µM | > 100 µM | > 100 µM | > 100 µM | – | – | – |
| Cc1nn(-c2ccccc2)c(C)c1/C=N/N=C1\S/C(=C\c2ccc(Cl)cc2)C(=O)N1c1ccccc1 | > 100 µM | > 100 µM | 7.89 µM | > 100 µM | > 100 µM | > 100 µM | > 100 µM | 84.3 µM | > 100 µM | > 100 µM | – | – | – |
| CC(C)C(C/C=C1\CC(CO)(COC(=O)C2CCCCC2)OC1=O)C(C)C (configuration not stated) | 59.3 µM | 40.2 µM | 28.9 µM | 76 µM | 41.2 µM | 33.8 µM | 37.2 µM | 35.4 µM | 45.1 µM | 31.4 µM | – | – | – |
| O=C1c2c(O)cccc2-c2nn(CCNCCO)c3ccc(NCCNCCO)c1c23 | 1.94 µM | 0.592 µM | 0.895 µM | 0.934 µM | 4.8 µM | 1.97 µM | 2.16 µM | 1.37 µM | > 100 µM | 0.405 µM | – | – | – |
| COc1ccc(C(SC2C(O)C(CO)OC2n2ccc(=O)[nH]c2=O)(c2ccccc2)c2ccc(OC)cc2)cc1 (configuration not stated) | 26.1 µM | 39.6 µM | 32 µM | 26 µM | 41.8 µM | 53.9 µM | 33 µM | 32.4 µM | 47.1 µM | 41 µM | – | – | – |
| O=C1CC(=O)n2cnc3cccc(c32)N1 | > 100 µM | > 100 µM | > 100 µM | > 100 µM | > 100 µM | > 100 µM | > 100 µM | > 100 µM | > 100 µM | > 100 µM | – | – | – |
| CC(=O)NC1C(OCc2ccccc2)OC(CO)C(O)C1OC(C)C(=O)NC(C(=O)NC(CCC(=O)NCCCCNc1c2ccccc2nc2cccc([N+](=O)[O-])c12)C(N)=O)C(C)C (configuration not stated) | 3.67 µM | 4.75 µM | 5.45 µM | 9.93 µM | 10.1 µM | 7.19 µM | > 30.8 µM | 3.56 µM | > 100 µM | 34.5 µM | – | – | – |
| O=c1[nH]n(Cc2ccccc2)c2ccc([N+](=O)[O-])cc12 | 99.6 µM | > 100 µM | > 100 µM | > 100 µM | > 100 µM | > 100 µM | > 100 µM | > 100 µM | > 100 µM | > 100 µM | – | – | – |
| CC(C)(C)n1c(=O)[nH]c(=O)n1C(C)(C)C | > 100 µM | > 100 µM | > 100 µM | > 100 µM | > 100 µM | > 100 µM | > 100 µM | > 100 µM | > 100 µM | > 100 µM | – | – | – |
| CC(Oc1ccccc1Cl)C(=O)NN1C(=O)CSC1c1ccccc1 (configuration not stated) | > 100 µM | > 100 µM | > 100 µM | > 100 µM | > 100 µM | > 100 µM | > 100 µM | > 100 µM | > 100 µM | > 100 µM | – | – | – |
| CC(C)[C@H](NC(=O)[C@H](C(C)C)N(Cc1ccccc1)Cc1ccccc1)C(=O)N(C)[C@H](C(=O)N1CCC[C@H]1C(=O)N(C)[C@H](C)C(=O)NCc1ccc(Cl)cc1)C(C)C (Bn2Val-V[NMeV]P[dNMeA]-{NH(4-Cl-benzyl)}) | 30.9 µM | 28.6 µM | 28.7 µM | > 100 µM | 34 µM | 36.3 µM | > 100 µM | 6.27 µM | 95.7 µM | > 100 µM | – | – | – |
| Cc1ccccc1N=C(N)Nc1ccccc1C | > 100 µM | > 100 µM | > 100 µM | > 100 µM | > 100 µM | > 100 µM | > 100 µM | > 100 µM | > 100 µM | > 100 µM | – | – | – |
| Nc1nc(Cl)cc(NC23CC4CC(CC(C4)C2)C3)n1 | > 100 µM | > 100 µM | > 100 µM | > 100 µM | > 100 µM | > 100 µM | > 100 µM | > 100 µM | > 100 µM | > 100 µM | – | – | – |
| C=C=C(CC(CC(=C)Br)(C(=O)OC)C(=O)OC)S(=O)(=O)c1ccccc1 | 8.58 µM | 6.33 µM | 2.36 µM | 20.7 µM | 10.8 µM | 3.23 µM | 4.31 µM | 3.99 µM | 5.96 µM | 24.9 µM | – | – | – |
| O=C(Cc1ccc(Cl)c(Cl)c1)NCC1(N2CCCCC2)CCCCC1 | > 100 µM | > 100 µM | > 100 µM | > 100 µM | > 100 µM | – | > 100 µM | 53 µM | > 100 µM | > 100 µM | – | – | – |
